“Also recorded” adds a separate entry of the source.
Key:
Type in all cases: in vivo, rat
[1] = test system: Vascular Cell Adhesion Molecule-1 (VCAM-1); assay: Assay C: VCAM-1 mRNA, TaqMan; settings: aldosterone+salt alone or with eplerenone 100 mg/kg/day; increase at day 30 did not reach statistical significance
Method: (§1) The procedure of Assay B was expanded upon in a further study. […] Myocardial tissue from animals in each treatment group was examined after 7, 14, or 30 days of treatment.
(§2) Potassium chloride supplementation was added to the saline solution in order to prevent the potential hypokalemia associated with aldosterone excess.
(§3) Treatment At the time of the surgery, an Alzet 2002 osmotic minipump (Alza Corp., Palo Alto, Calif.) containing either vehicle (9% ethanol/87% propylene glycol/4% dH2O) or 1.0 mg/mL d-aldosterone (Sigma Chemical, St. Louis, Mo.) was inserted subcutaneously at the nape of the neck. Aldosterone was administered at a dose of 0.75 µg/hour. […]
(§4) The fluorogenic 5′-nuclease assay (TaqMan PCR) using Applied Biosystems' 7700 Sequence Detection System (Applied Biosystems, Foster City, Calif.) allowed for real time detection/quantitation of a specific gene by monitoring the increase in fluorescence of a gene-specific, dye-labeled oligonucleotide probe. […] When the probe was annealed to the target gene, fluorescence of 6FAM was prevented by the close proximity of TAMRA. The exonuclease activity of Taq polymerase released the dyes from the oligonucleotide probe by displacing the probe from the target sequence resulting in fluorescence excitation in direct proportion to the amount of target message present. […]

[2] = Assay C: aldosterone infusion study, radiotelemetrized arterial blood pressure; settings: 30-day protocol; uninephrectomized Sprague-Dawley rats, aldosterone + salt alone or with eplerenone 100 mg/kg/day
Method: The procedure of Assay B was expanded upon in a further study. […] Myocardial tissue from animals in each treatment group was examined after 7, 14, or 30 days of treatment. […] Lesions were preceded by the expression and progressive upregulation of proinflammatory molecules.
Male Sprague-Dawley rats, weighing 230 to 250 g, (Harlan Sprague-Dawley Industries, Indianapolis, Ind.) were housed in a room 12-hours light/12-hours dark daily cycle at an ambient temperature of 22±1° C. (n=96). Animals were allowed one week to adjust after arrival and had free access to TEKLAD 22/5 rodent diet (Harlan TEKLAD, Madison, Wis.) and tap water until the initiation of the experiment.
as §2
Treatment At the time of the surgery, an Alzet 2002 osmotic minipump (Alza Corp., Palo Alto, Calif.) containing either vehicle (9% ethanol/87% propylene glycol/4% dH2O) or 1.0 mg/mL d-aldosterone (Sigma Chemical, St. Louis, Mo.) was inserted subcutaneously at the nape of the neck. […]
Animals to be sacrificed after 7 or 14 days of treatment were uninephrectomized and implanted with an Alzet minipump. […] Animals were monitored daily for signs of distress and infection at the surgical site. […]
Radiotelemetrized arterial blood pressure was calculated with the […]

[3] = test system: COX-2; assay: Assay C: COX-2 mRNA, TaqMan; settings: 7, 14, 30 days; aldosterone+salt alone or with eplerenone 100 mg/kg/day
Method: as §1, §2, §3, §4

[4] = test system: Monocyte Chemoattractant Protein-1 (MCP-1); assay: Assay C: MCP-1 mRNA, TaqMan; settings: 7, 14, 30 days; aldosterone+salt alone or with eplerenone 100 mg/kg/day
Method: as §1, §2, §3, §4

Structure (SMILES)	VCAM-1 gene expression in myocardium [1]	Systolic blood pressure (radiotelemetry) [2]	COX-2 mRNA expression in myocardium [3]	MCP-1 mRNA expression in myocardium [4]
COC(=O)[C@@H]1CC2=CC(=O)CC[C@]2(C)[C@@]23O[C@@H]2C[C@@]2(C)[C@@H](CC[C@@]24CCC(=O)O4)[C@H]13 [eplerenone]	significantly reduced; also recorded: inhibition of early time-course expression of myocardial ICAM-1 and VCAM-1	significantly reduced at days 8-30; also recorded: remained elevated compared to vehicle+salt controls	inhibition of early time-course expression of myocardial COX-2; also recorded: significantly reduced	significantly reduced; also recorded: inhibition of early time-course expression of myocardial MCP-1
C[C@]12CCC(=O)C=C1CC[C@@H]1[C@@H]2[C@@H](O)C[C@]2(C=O)[C@@H](C(=O)CO)CC[C@@H]12 [aldosterone]	increased two-fold at day 30	induced severe hypertension; also recorded: induced a progressive increase in blood pressure with time	significantly increased	significantly increased

Source: patent US20040037806A1, “Aldosterone blocker therapy to prevent or treat inflammation-related disorders” (Pharmacia Corporation, priority 2002, published 2004)
